Measurements reported in patent US20150274664A1 (MERCK SHARP & DOHME CORP., priority 2012, published 2015).
pEC50: −log10 of the molar value.

Target: T1, human GPR119 (Homo sapiens, UniProt Q8TDV5)
T1 construct: expressed in transfected cells; host or cells: HEK293
T1 sequence (Q8TDV5 1-335): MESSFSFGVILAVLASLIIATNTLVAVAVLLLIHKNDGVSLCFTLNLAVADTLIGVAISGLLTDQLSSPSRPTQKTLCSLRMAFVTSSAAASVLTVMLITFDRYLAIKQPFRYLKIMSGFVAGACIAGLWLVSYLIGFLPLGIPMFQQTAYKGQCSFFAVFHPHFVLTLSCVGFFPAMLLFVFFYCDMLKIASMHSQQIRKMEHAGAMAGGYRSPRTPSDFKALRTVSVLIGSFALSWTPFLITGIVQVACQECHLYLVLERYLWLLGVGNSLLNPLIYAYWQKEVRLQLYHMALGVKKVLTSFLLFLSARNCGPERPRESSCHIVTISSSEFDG
Assay: Measurement of GPR119 signaling using LANCE 384-well cAMP kit (LCMP assay)
Type: cell-based
Details: HEK293 cells stably transfected with human GPR119
Procedure, shortened: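 HEK293 cells stably expressing human GPR119, in stimulation buffer at pH 7.4 with 100 μM phosphodiesterase inhibitors, exposed to a 10-point compound dilution (2.5% DMSO final) for 45 min. cAMP measured by LANCE TR-FRET at 665 nm against a cAMP standard curve, normalized between DMSO basal and an internal agonist maximum, with a 4-parameter fit.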

Structure (SMILES) | pEC50
CC(C)c1noc(N2CCC([C@H]3C[C@@H]3CCOc3cc(F)c(CC(=O)N4CCC4)c(F)c3)CC2)n1 [Example 79, 1-(azetidin-1-yl)-2-(2,6-difluoro-4-(2-((1R,2R)-2-(1-(3-isopropyl-1,2,4-oxadiazol-5-yl)piperidin-4-yl)cyclopropyl)ethoxy)phenyl)ethanone] | 9.26
COCc1noc(N2CCC([C@H]3C[C@@H]3CCOc3cc(F)c(CC(=O)N4CCC4)c(F)c3)CC2)n1 [Example 80, 1-(azetidin-1-yl)-2-(2,6-difluoro-4-(2-((1R,2R)-2-(1-(3-(methoxymethyl)-1,2,4-oxadiazol-5-yl)piperidin-4-yl)cyclopropyl)ethoxy)phenyl)ethanone] | 8.62
CC(C)c1noc(N2CCC([C@H]3C[C@@H]3CCOc3cc(F)c(CC(=O)N(C)C)c(F)c3)CC2)n1 [Example 81, 2-(2,6-difluoro-4-(2-((1R,2R)-2-(1-(3-isopropyl-1,2,4-oxadiazol-5-yl)piperidin-4-yl)cyclopropyl)ethoxy)phenyl)-N,N-dimethylacetamide] | 9.17
CC(C)c1noc(N2CCC([C@@H]3C[C@H]3CCOc3cc(F)c(CC(=O)N4CCC4)c(F)c3)CC2)n1 [Example 82, 1-(azetidin-1-yl)-2-(2,6-difluoro-4-(2-((1S,2S)-2-(1-(3-isopropyl-1,2,4-oxadiazol-5-yl)piperidin-4-yl)cyclopropyl)ethoxy)phenyl)ethanone] | 9.29
COCc1noc(N2CCC([C@@H]3C[C@H]3CCOc3cc(F)c(CC(=O)N4CCC4)c(F)c3)CC2)n1 [Example 83, 1-(azetidin-1-yl)-2-(2,6-difluoro-4-(2-((1S,2S)-2-(1-(3-(methoxymethyl)-1,2,4-oxadiazol-5-yl)piperidin-4-yl)cyclopropyl)ethoxy)phenyl)ethanone] | 8.28
COCc1noc(N2CCC([C@H]3C[C@@H]3CCOc3cc(F)c(CC(=O)N(C)C)c(F)c3)CC2)n1 [Example 84, 2-(2,6-difluoro-4-(2-((1R,2R)-2-(1-(3-(methoxymethyl)-1,2,4-oxadiazol-5-yl)piperidin-4-yl)cyclopropyl)ethoxy)phenyl)-N,N-dimethylacetamide] | 8.52
CC(C)c1noc(N2CCC([C@H]3C[C@@H]3CCOc3ccc(S(C)(=O)=O)cc3F)CC2)n1 [Example 85, 5-(4-((1R,2R)-2-(2-(2-fluoro-4-(methylsulfonyl)phenoxy)ethyl)cyclopropyl)piperidin-1-yl)-3-isopropyl-1,2,4-oxadiazole] | 7.77
CC(C)c1noc(N2CCC([C@H]3C[C@@H]3CCOc3ccc(-n4cnnn4)c(F)c3)CC2)n1 [Example 86, 5-(4-((1R,2R)-2-(2-(3-fluoro-4-(1H-tetrazol-1-yl)phenoxy)ethyl)cyclopropyl)piperidin-1-yl)-3-isopropyl-1,2,4-oxadiazole] | 7.89
CC(C)c1noc(N2CCC([C@H]3C[C@@H]3CCOc3ccc(S(C)(=O)=O)c(F)c3)CC2)n1 [Example 87, 5-(4-((1R,2R)-2-(2-(3-fluoro-4-(methylsulfonyl)phenoxy)ethyl)cyclopropyl)piperidin-1-yl)-3-isopropyl-1,2,4-oxadiazole] | 7.96
CC(C)c1noc(N2CCC([C@@H]3C[C@H]3CCOc3ccc(N4CCNC4=O)cc3F)CC2)n1 [Example 88, 1-(3-fluoro-4-(2-((1S,2S)-2-(1-(3-isopropyl-1,2,4-oxadiazol-5-yl)piperidin-4-yl)cyclopropyl)ethoxy)phenyl)imidazolidin-2-one] | 7.74
COCc1noc(N2CCC([C@@H]3C[C@H]3CCOc3ccc(-n4cnnn4)cc3F)CC2)n1 [Example 89, 5-(4-((1S,2S)-2-(2-(2-fluoro-4-(1H-tetrazol-1-yl)phenoxy)ethyl)cyclopropyl)piperidin-1-yl)-3-(methoxymethyl)-1,2,4-oxadiazole] | 7.64
COCc1noc(N2CCC([C@H]3C[C@@H]3CCOc3ccc(-n4cnnn4)cc3F)CC2)n1 [Example 90, 5-(4-((1R,2R)-2-(2-(2-fluoro-4-(1H-tetrazol-1-yl)phenoxy)ethyl)cyclopropyl)piperidin-1-yl)-3-(methoxymethyl)-1,2,4-oxadiazole] | 7.70
COCc1noc(N2CCC([C@@H]3C[C@H]3CCOc3ccc(CC(=O)N4CCC4)c(F)c3)CC2)n1 [Example 91, 1-(azetidin-1-yl)-2-(2-fluoro-4-(2-((1S,2S)-2-(1-(3-(methoxymethyl)-1,2,4-oxadiazol-5-yl)piperidin-4-yl)cyclopropyl)ethoxy)phenyl)ethanone] | 7.72
CCS(=O)(=O)c1ccc(OCC[C@H]2C[C@@H]2C2CCN(c3nc(C(C)C)no3)CC2)c(F)c1 [Example 92, 5-(4-((1R,2R)-2-(2-(4-(ethylsulfonyl)-2-fluorophenoxy)ethyl)cyclopropyl)piperidin-1-yl)-3-isopropyl-1,2,4-oxadiazole] | 7.89
COCc1noc(N2CCC([C@H]3C[C@@H]3CCOc3ccc(CC(=O)N(C)C)c(F)c3)CC2)n1 [Example 93, 2-(2-fluoro-4-(2-((1R,2R)-2-(1-(3-(methoxymethyl)-1,2,4-oxadiazol-5-yl)piperidin-4-yl)cyclopropyl)ethoxy)phenyl)-N,N-dimethylacetamide] | 7.74
CC1(OC(=O)N2CCC([C@@H]3C[C@H]3CCOc3ccc(S(C)(=O)=O)c(F)c3)CC2)CC1 [Example 94, 1-methylcyclopropyl 4-((1S,2S)-2-(2-(3-fluoro-4-(methylsulfonyl)phenoxy)ethyl)cyclopropyl)piperidine-1-carboxylate] | 7.64
CC1(OC(=O)N2CCC([C@H]3C[C@@H]3CCOc3ccc(CC(=O)N4CCC4)c(F)c3)CC2)CC1 [Example 95, 1-methylcyclopropyl 4-((1R,2R)-2-(2-(4-(2-(azetidin-1-yl)-2-oxoethyl)-3-fluorophenoxy)ethyl)cyclopropyl)piperidine-1-carboxylate] | 8.59
CC1(OC(=O)N2CCC([C@@H]3C[C@H]3CCOc3ccc(-n4cnnn4)cc3F)CC2)CC1 [Example 96, 1-methylcyclopropyl 4-((1S,2S)-2-(2-(2-fluoro-4-(1H-tetrazol-1-yl)phenoxy)ethyl)cyclopropyl)piperidine-1-carboxylate] | 8.09
CC1(OC(=O)N2CCC([C@@H]3C[C@H]3CCOc3ccc(CC(=O)N4CCC4)c(F)c3)CC2)CC1 [Example 97, 1-methylcyclopropyl 4-((1S,2S)-2-(2-(4-(2-(azetidin-1-yl)-2-oxoethyl)-3-fluorophenoxy)ethyl)cyclopropyl)piperidine-1-carboxylate] | 8.38
CC1(OC(=O)N2CCC([C@H]3C[C@@H]3CCOc3ccc(CC(=O)N4CCC4)cc3F)CC2)CC1 [Example 98, 1-methylcyclopropyl 4-((1R,2R)-2-(2-(4-(2-(azetidin-1-yl)-2-oxoethyl)-2-fluorophenoxy)ethyl)cyclopropyl)piperidine-1-carboxylate] | 8.20
CN(C)C(=O)Cc1ccc(OCC[C@@H]2C[C@H]2C2CCN(C(=O)OC3(C)CC3)CC2)cc1F [Example 99, 1-methylcyclopropyl 4-((1S,2S)-2-(2-(4-(2-(dimethylamino)-2-oxoethyl)-3-fluorophenoxy)ethyl)cyclopropyl)piperidine-1-carboxylate] | 8.06
CN(C)C(=O)Cc1ccc(OCC[C@H]2C[C@@H]2C2CCN(C(=O)OC3(C)CC3)CC2)cc1F [Example 100, 1-methylcyclopropyl 4-((1R,2R)-2-(2-(4-(2-(dimethylamino)-2-oxoethyl)-3-fluorophenoxy)ethyl)cyclopropyl)piperidine-1-carboxylate] | 8.26
CC1(OC(=O)N2CCC([C@@H]3C[C@H]3CCOc3cc(F)c(CC(=O)N4CCC4)c(F)c3)CC2)CC1 [Example 101, 1-methylcyclopropyl 4-((1S,2S)-2-(2-(4-(2-(azetidin-1-yl)-2-oxoethyl)-3,5-difluorophenoxy)ethyl)cyclopropyl)piperidine-1-carboxylate] | 8.70
CN(C)C(=O)Cc1c(F)cc(OCC[C@@H]2C[C@H]2C2CCN(C(=O)OC3(C)CC3)CC2)cc1F [Example 102, 1-methylcyclopropyl 4-((1S,2S)-2-(2-(4-(2-(dimethylamino)-2-oxoethyl)-3,5-difluorophenoxy)ethyl)cyclopropyl)piperidine-1-carboxylate] | 8.68
CC1(OC(=O)N2CCC([C@H]3C[C@@H]3CCOc3cc(F)c(CC(=O)N4CCC4)c(F)c3)CC2)CC1 [Example 103, 1-methylcyclopropyl 4-((1R,2R)-2-(2-(4-(2-(azetidin-1-yl)-2-oxoethyl)-3,5-difluorophenoxy)ethyl)cyclopropyl)piperidine-1-carboxylate] | 9.15
CN(C)C(=O)Cc1c(F)cc(OCC[C@H]2C[C@@H]2C2CCN(C(=O)OC3(C)CC3)CC2)cc1F [Example 104, 1-methylcyclopropyl 4-((1R,2R)-2-(2-(4-(2-(dimethylamino)-2-oxoethyl)-3,5-difluorophenoxy)ethyl)cyclopropyl)piperidine-1-carboxylate] | 9.16
CC1(OC(=O)N2CCC([C@@H]3C[C@H]3CCOc3ccc(-n4cnnn4)c(F)c3)CC2)CC1 [Example 105, 1-methylcyclopropyl 4-((1S,2S)-2-(2-(3-fluoro-4-(1H-tetrazol-1-yl)phenoxy)ethyl)cyclopropyl)piperidine-1-carboxylate] | 7.82
CC1(OC(=O)N2CCC([C@H]3C[C@@H]3CCOc3ccc(-n4cnnn4)c(F)c3)CC2)CC1 [Example 106, 1-methylcyclopropyl 4-((1R,2R)-2-(2-(3-fluoro-4-(1H-tetrazol-1-yl)phenoxy)ethyl)cyclopropyl)piperidine-1-carboxylate] | 7.85
